Source: paper PMC4450091 (JOM (Warrendale, Pa. : 1989), 2015)
Where no end group is shown, it is not given here.

How the values were obtained:
[1] = test system: Escherichia coli ATCC 2592; type: cell-based; details: ATCC 2592, 24 h
[2] = test system: Streptococcus mutans ATCC 25175; type: cell-based; details: ATCC 25175, 24 h

Row | Sequence | Minimum inhibitory concentration (MIC), E. coli [1] [µM] | Minimum inhibitory concentration (MIC), S. mutans [2] [µM]
1 | HAYKQPVLSTPFGGGKWKRWWWWR [TiBPS3-AMP2] | 167.4 | –
2 | RPRENRGRERGLGGGKWKRWWWWR [TiBPS1-AMP2] | 80.8 | –
3 | SRPNGYGGSESSGGGLKLLKKLLKLLKKL [TiBPS2-AMP1] | – | 336.5
